Test results as given in patent US20230265098A1, “ALKYNE QUINAZOLINE DERIVATIVES AS INHIBITORS OF ERBB2” (EnLiven Therapeutics, Inc., priority 2020, published 2023).

Assays:
[1] = target: T1, Ba/F3 ERBB2-V777_G778insGC (Homo sapiens, UniProt P04626, INS778CG, cells depend on it); assay: Cell viability assay (CellTiter Glo); assay type: cell-based, mouse; conditions: 72 hours; 3000 cells per well, 96-well plates; read-out: Cell viability IC50, nM, Ba/F3 ERBB2-V777_G778insGC
T1 construct: Ba/F3 cell lines were engineered to express human ERBB2 or EGFR kinases, rendering the cells IL-3 independent
T1 sequence (P04626 with tags, fused parts or gaps INS778CG): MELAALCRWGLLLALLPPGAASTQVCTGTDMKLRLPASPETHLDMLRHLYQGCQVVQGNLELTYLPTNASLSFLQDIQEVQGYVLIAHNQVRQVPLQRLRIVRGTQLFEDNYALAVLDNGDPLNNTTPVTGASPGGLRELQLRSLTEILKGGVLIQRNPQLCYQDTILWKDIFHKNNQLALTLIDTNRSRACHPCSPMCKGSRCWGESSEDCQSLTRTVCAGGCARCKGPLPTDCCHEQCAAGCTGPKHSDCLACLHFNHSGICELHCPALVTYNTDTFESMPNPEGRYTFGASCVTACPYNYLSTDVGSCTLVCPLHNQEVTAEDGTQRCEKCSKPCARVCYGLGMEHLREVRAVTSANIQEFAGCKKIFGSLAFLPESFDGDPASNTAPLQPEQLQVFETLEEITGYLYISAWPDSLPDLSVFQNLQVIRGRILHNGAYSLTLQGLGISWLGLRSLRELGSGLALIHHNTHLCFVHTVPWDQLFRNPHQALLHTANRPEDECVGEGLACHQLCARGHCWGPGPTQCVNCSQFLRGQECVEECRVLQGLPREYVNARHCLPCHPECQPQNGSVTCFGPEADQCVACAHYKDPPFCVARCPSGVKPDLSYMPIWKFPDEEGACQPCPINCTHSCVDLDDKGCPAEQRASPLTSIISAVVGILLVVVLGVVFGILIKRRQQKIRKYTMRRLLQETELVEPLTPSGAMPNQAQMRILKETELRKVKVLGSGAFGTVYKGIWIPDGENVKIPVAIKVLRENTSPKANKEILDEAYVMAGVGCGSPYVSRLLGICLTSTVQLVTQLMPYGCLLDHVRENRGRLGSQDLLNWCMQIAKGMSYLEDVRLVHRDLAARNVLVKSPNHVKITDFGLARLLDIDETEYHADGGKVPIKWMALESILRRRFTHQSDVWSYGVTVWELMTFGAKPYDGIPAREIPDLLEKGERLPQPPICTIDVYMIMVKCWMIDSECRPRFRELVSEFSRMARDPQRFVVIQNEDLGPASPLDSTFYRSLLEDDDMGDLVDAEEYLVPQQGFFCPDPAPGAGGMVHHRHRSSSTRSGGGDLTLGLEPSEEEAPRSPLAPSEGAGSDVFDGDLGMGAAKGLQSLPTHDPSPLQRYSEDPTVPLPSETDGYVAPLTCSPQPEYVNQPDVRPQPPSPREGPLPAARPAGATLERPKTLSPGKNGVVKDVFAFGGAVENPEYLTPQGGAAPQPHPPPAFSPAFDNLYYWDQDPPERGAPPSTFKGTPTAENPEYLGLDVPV
Summary of the method: (§1)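 Murine Ba/F3 cells made IL-3-independent by retroviral human EGFR or ERBB2 were seeded at 3000 or 300 cells per well and exposed to serially diluted compound (DMSO ≤0.1%) for 72 hours at 37° C, 5% CO2. CellTiter Glo luminescence was normalised to DMSO and media-only controls and fitted to a sigmoidal dose-response.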

[2] = test system: A431 cells; assay: Cell viability assay (CellTiter Glo); assay type: cell-based; conditions: Homo sapiens, A-431; 72 hours; 1500 cells per well, 384-well; DMEM + 10% FBS
Method: (§2) Cells were treated with compounds, and cell viability was measured as a metric of kinase inhibition.
(§3) The Ba/F3 cell line is IL-3-dependent mouse cell line derived from the C3H mouse strain. Ba/F3 cell lines were engineered to express human ERBB2 or EGFR kinases, rendering the cells IL-3 independent. The lines were generated via retroviral transduction utilizing a Moloney murine leukemia virus (MMLV) promoter, and constructs are stably integrated into the cell genome.
(§4) Similarly, Ba/F3 cell lines engineered to express EGFR, ERBB2, or ERBB2 mutants were grown, harvested, counted and seeded at 3000 cells per well in 96-well plates for the data sets shown in Tables B3-B4, and seeded at 300 cells per well in 384-well plates for the data set shown in Table B5. A subset of wells contained media only (low control, “LC”).
(§5) Table B2 provides the growth media and number of cells seeded per well for the each cell line.
(§6) Compounds were dissolved in DMSO and serially diluted. Serially-diluted compound or a DMSO only control (high control, “HC”) was added to the plated cells in each well. […] The final proportion of DMSO never exceeded 0.1%.
(§7) Plates were placed in a 37° C., 5% CO2 incubator for 72 hours. Plates were then removed from the incubator and equilibrated for 15 minutes at room temperature. 40 IA of CellTiter Glo reagent (Promega) was added to measure the relative level of metabolically active cells by quantifying intracellular ATP concentrations. Plates were incubated for 30 minutes at room temperature, and luminescence was measured. Percent viability was normalized to a vehicle control only using the following formula: % viability=100×(LumSample−LumLC) (LumHC−LumLC). Graphical curves were fitted using a nonlinear regression model with a sigmoidal dose response.

[3] = test system: BT-474 cells; assay: Cell viability assay (CellTiter Glo); assay type: cell-based; conditions: Homo sapiens, 72 hours, 2000 cells per well, 384-well, DMEM + 10% FBS
Method: as §2, §3, §4, §5, §6, §7

[4] = test system: MDA-MB-175VII cells; assay: Cell viability assay (CellTiter Glo); assay type: cell-based; conditions: Homo sapiens, 72 hours, 2000 cells per well, 384-well, RPMI + 10% FBS
Method: as §2, §3, §4, §5, §6, §7

[5] = target: T2, Ba/F3 EGFR wt (Homo sapiens, UniProt P00533); assay: Cell viability assay (CellTiter Glo); assay type: cell-based, mouse; conditions: 72 hours; 3000 cells per well, 96-well plates; read-out: Cell viability IC50, nM, Ba/F3 EGFR wt
T2 construct: Ba/F3 cell lines were engineered to express human ERBB2 or EGFR kinases, rendering the cells IL-3 independent
T2 sequence (P00533 whole entry, change not shown): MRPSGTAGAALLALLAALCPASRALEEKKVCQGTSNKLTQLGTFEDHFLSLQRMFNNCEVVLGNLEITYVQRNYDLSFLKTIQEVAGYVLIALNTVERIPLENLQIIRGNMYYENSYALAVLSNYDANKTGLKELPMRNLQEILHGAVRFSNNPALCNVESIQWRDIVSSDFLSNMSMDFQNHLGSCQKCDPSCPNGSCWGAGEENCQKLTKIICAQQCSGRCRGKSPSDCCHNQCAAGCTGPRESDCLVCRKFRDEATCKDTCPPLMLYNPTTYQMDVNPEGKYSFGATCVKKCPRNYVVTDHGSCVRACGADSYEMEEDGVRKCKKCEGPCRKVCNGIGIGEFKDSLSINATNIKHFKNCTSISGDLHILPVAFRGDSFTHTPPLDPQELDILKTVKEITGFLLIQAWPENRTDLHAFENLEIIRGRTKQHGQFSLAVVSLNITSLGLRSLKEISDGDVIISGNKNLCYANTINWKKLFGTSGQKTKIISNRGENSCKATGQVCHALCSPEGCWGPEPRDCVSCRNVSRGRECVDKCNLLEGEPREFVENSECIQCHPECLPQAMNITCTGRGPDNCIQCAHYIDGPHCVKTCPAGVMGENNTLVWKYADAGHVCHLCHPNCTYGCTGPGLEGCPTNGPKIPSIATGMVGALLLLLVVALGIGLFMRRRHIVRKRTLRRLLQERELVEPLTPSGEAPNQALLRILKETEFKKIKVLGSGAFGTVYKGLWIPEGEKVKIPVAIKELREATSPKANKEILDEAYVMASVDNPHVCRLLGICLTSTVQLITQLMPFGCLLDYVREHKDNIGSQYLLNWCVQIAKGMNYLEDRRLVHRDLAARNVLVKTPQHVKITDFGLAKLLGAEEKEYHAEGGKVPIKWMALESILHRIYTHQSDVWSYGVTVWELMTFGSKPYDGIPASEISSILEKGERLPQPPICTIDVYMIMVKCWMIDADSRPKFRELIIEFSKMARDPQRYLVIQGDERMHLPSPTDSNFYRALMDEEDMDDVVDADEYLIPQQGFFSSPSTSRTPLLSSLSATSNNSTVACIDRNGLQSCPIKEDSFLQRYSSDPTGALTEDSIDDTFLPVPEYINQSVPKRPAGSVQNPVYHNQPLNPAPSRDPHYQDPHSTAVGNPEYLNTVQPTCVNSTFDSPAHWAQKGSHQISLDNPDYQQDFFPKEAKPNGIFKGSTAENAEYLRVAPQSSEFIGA
Summary of the method: as §1

[6] = target: ERBB2/HER2 (Homo sapiens, UniProt P04626); assay: Reaction Biology kinase activity assay (33P-ATP, HotSpot); assay type: biochemical; conditions: final enzyme concentration 50 nM; 100 μM 33P-ATP; 20 min preincubation, 2 hours at 25° C.
Method: (§8) Inhibition of kinase activity was assessed using a kinase activity assay (Anastassiadis, T. et al. Nat Biotechnol 2011 29: 1039-1045). In particular, substrate (poly Glu-Tyr sodium salt (Sigma Aldrich, cat #P7244)) was freshly prepared in reaction buffer (20 mM Hepes (pH 7.5), 10 mM MgCl2, 1 mM EGTA, 0.02% Brij35, 0.02 mg/ml BSA, 0.1 mM Na3VO4, 2 mM DTT, 1% DMSO). EGFR, ERBB2 or ERBB2 mutant kinases were added to the substrate solution and mixed at the final concentrations in Table B1, below. Compounds were dissolved in 100% DMSO and the resulting solutions were added to the kinase reaction mixture. The kinase reaction mixture was incubated with the compounds for 20 minutes at room temperature. 100 μM ^33P-ATP (Specific activity 10 μCi/μl) was then added to initiate the reaction. This mixture was incubated for 2 hours at 25° C.
(§9) Reactions were spotted onto P81 ion exchange filter paper (Whatman). Unbound phosphate was removed by extensive washing of filters in 0.75% phosphoric acid. Radioactivity was detected using a HotSpot, a proprietary technology of Reaction Biology Corporation (Anastassiadis, T. et al., Nat Biotechnol. 2011 29(11):1039-45). Kinase activity data were expressed as the percentage kinase activity remaining in test samples relative to vehicle only (i.e., DMSO only) control reactions. IC50 values and curve fits were obtained using Prism (GraphPad Software), using a nonlinear regression model with a sigmoidal dose response and are shown in Table B1.

[7] = target: ERBB2 (D769H) (Homo sapiens, UniProt P04626, D769H); assay: as above; assay type: biochemical; conditions: final enzyme concentration 150 nM; 100 μM 33P-ATP; 20 min preincubation, 2 hours at 25° C.
Sequence of ERBB2 (D769H) (P04626 23-1255 D769H): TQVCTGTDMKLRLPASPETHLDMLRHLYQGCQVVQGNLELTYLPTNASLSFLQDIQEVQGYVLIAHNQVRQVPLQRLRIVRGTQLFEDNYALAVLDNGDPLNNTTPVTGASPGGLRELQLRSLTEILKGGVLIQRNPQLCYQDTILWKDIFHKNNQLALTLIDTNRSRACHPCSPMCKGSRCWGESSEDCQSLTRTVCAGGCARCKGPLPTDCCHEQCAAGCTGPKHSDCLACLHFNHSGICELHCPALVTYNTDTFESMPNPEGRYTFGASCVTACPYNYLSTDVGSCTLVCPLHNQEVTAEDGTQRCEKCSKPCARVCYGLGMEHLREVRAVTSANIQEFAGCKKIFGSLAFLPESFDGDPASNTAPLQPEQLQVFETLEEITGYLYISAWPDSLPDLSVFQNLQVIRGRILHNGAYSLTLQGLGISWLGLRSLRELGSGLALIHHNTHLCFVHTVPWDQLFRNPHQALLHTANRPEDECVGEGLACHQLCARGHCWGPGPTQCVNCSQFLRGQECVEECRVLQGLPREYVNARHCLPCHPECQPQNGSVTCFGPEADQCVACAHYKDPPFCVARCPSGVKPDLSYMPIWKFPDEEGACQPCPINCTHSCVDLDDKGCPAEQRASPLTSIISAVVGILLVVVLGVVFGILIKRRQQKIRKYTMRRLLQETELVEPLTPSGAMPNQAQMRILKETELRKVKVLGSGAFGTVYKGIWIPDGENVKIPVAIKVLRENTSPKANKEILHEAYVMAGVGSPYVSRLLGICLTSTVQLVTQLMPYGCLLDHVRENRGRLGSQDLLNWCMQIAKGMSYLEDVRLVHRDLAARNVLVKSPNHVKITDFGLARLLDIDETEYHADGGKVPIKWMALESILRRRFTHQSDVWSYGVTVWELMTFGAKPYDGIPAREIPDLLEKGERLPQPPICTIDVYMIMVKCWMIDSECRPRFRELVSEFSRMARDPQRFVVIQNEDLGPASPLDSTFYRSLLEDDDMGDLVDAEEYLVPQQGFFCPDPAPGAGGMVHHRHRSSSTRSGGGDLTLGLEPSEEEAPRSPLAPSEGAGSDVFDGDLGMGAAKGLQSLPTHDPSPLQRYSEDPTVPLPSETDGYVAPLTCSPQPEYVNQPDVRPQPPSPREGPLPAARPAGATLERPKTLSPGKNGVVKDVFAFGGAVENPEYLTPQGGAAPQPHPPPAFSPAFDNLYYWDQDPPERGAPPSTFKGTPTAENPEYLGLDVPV
Method: as §8, §9

[8] = target: ERBB2 (P1170A) (Homo sapiens, UniProt P04626, P1170A); assay: as above; assay type: biochemical; conditions: final enzyme concentration 20 nM; 100 μM 33P-ATP; 20 min preincubation, 2 hours at 25° C.
Method: as §8, §9

[9] = target: ERBB2 (R896C) (Homo sapiens, UniProt P04626, R896C); assay: as above; assay type: biochemical; conditions: final enzyme concentration 200 nM; 100 μM 33P-ATP; 20 min preincubation, 2 hours at 25° C.
Method: as §8, §9

[10] = target: ERBB2 (V777L) (Homo sapiens, UniProt P04626, V777L); assay: as above; assay type: biochemical; conditions: final enzyme concentration 40 nM; 100 μM 33P-ATP; 20 min preincubation, 2 hours at 25° C.
Method: as §8, §9

[11] = target: ERBB2 (V777_G778insCG) (Homo sapiens, UniProt P04626, INS777CG); assay: as above; assay type: biochemical; conditions: final enzyme concentration 100 nM; 100 μM 33P-ATP; 20 min preincubation, 2 hours at 25° C.
Method: as §8, §9

[12] = target: EGFR (Homo sapiens, UniProt P00533); assay: as above; assay type: biochemical; conditions: final enzyme concentration 3 nM; 100 μM 33P-ATP; 20 min preincubation, 2 hours at 25° C.
Method: as §8, §9

[13] = target: ERBB2 (D769Y) (Homo sapiens, UniProt P04626, D769Y); assay: as above; assay type: biochemical; conditions: final enzyme concentration 15 nM; 100 μM 33P-ATP; 20 min preincubation, 2 hours at 25° C.
Sequence of ERBB2 (D769Y) (P04626 23-1255 D769Y): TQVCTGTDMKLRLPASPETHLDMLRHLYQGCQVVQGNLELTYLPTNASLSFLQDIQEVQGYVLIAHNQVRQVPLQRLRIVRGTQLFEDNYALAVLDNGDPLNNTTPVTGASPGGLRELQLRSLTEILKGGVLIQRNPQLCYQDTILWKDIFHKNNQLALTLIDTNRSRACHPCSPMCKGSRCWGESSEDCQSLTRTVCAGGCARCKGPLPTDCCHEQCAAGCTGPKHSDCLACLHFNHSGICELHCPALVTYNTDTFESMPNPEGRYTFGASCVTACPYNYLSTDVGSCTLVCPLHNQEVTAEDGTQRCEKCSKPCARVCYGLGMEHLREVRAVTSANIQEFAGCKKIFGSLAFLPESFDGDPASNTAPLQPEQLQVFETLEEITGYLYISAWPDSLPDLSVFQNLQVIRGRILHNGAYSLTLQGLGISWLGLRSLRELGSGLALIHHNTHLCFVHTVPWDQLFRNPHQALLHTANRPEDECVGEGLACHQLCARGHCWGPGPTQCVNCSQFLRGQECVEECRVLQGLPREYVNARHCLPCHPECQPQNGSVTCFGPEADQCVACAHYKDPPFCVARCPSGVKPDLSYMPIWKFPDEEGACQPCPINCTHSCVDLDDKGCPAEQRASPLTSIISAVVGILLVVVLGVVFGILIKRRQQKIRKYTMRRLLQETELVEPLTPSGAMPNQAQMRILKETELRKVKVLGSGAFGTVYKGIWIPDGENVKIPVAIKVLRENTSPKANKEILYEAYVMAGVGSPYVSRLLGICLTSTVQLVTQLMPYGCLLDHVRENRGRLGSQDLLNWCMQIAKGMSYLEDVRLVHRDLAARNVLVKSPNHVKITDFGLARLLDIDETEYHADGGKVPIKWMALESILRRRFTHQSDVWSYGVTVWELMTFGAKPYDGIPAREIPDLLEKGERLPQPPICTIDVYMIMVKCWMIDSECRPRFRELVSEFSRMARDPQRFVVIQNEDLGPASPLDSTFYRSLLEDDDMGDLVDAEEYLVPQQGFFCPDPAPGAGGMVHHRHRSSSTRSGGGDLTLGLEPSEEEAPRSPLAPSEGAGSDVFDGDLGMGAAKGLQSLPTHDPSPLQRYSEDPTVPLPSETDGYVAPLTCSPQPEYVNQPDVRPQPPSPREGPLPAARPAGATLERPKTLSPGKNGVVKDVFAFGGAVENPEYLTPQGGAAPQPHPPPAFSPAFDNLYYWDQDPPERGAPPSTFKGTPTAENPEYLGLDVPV
Method: as §8, §9

IC50 [2] [nM] | IC50 [3] [nM] | IC50 [4] [nM] | IC50 [6] [nM] | IC50 [7] [nM] | IC50 [8] [nM] | IC50 [9] [nM] | IC50 [10] [nM] | IC50 [11] [nM] | IC50 [12] [nM] | IC50 [13] [nM] | Structure (SMILES) | GI50 [1] [nM] | GI50 [5] [nM]
 |  |  |  |  |  |  |  |  |  |  | CC#CC(=O)Nc1cc2c(Nc3ccc(Oc4ccn5ncnc5c4)c(C)c3)ncnc2cc1OCCN(C)C [Compound 150, N-[7-[2-(dimethylamino)ethoxy]-4-[(3-methyl-4-[[1,2,4]triazolo[1,5-a]pyridin-7-yloxy]phenyl)amino]quinazolin-6-yl]but-2-ynamide] | 3.01 | 
> 10000 | 41.8 | 89 | 3.07 | 5 | 3.99 | 2.95 | 4.3 | 4.43 | 954 | 13.7 | Cc1cc(Nc2ncnc3ccc(NC4=NC(C)(C)CO4)cc23)ccc1Oc1ccn2ncnc2c1 [Tucatinib, tucatinib, reference compound] | 12.5 | > 10000
1730 | 3.89 | 9 | 0.49 | 1.04 | 0.68 | 2.29 | 1.38 | 0.97 | 58 | 1.56 | CC#CC(=O)Nc1ccc2ncnc(Nc3ccc(Oc4ccn5ncnc5c4)c(C)c3)c2c1 [Compound 1, N-[4-[(3-methyl-4-[[1,2,4]triazolo[1,5-a]pyridin-7-yloxy]phenyl)amino]quinazolin-6-yl]but-2-ynamide] | < 1 | 2750
